Results on one compound are retold here after article PMC8103899, “Allyl Isothiocyanate: A TAS2R38 Receptor-Dependent Immune Modulator at the Interface Between Personalized Medicine and Nutrition” (Frontiers in Immunology, 2021).

Each structure is given as a SMILES string.

The subject of one assay is TAS2R38-PAV receptor. On the set-up: method as in PMID 20022913. The settings on record: cited from earlier work.
Another assay concerns NO production. Kind of assay: Nitric oxide detection by flow cytometry (DAF-FM) in PBMC. In kind it is cell-based, human. The settings on record: for NO production increase: monocytes, 5h. On the procedure:
PBMC (0.25x10^6) were suspended in DMEM medium and exposed to solvent control, AITC or 100 µM of the NO-donor SNAP (positive control) in 96-well plates for 30-270 min in a humidified incubator (5% CO2, 37°C). After that, cells were then loaded with 0.5 µM DAF-FM diacetate prepared in HBSS buffer for another 30 min. DAF-FM loading at this low concentration allows reducing the background fluorescence and improving the signal to noise ratio in a single cell ([34]). After incubation, the cells were washed twice with PBS, followed by 30 min. de-esterification of the intracellular diacetates in the dark at room temperature. Fluorescence signals (ex 488 nm, em 530± 30 nm) were monitored using a FACSCalibur™ flow cytometer. The median fluorescence intensity (MFI) of each sample was calculated using FlowJo software (Ashland, Oregon, USA). DAF-FM-DA has a detection limit of about 5 nM NO ([35]).
Figure 3 AITC stimulates NO production and exerts bactericidal activity in dependence of the TAS2R38 haplotype. PBMC were isolated from AVI/AVI or PAV/PAV genotype subjects and (A) exposed to 0.01% DMSO (SC), AITC, the NO-donor SNAP (positive control), or the NO scavenger cPTIO for the indicated time points. Then, 0.5 µM DAF-FM diacetate was added for 30 min. Fluorescence signals (ex 488 nm, em 530± 30 nm) were monitored using a FACSCalibur™. The median fluorescence intensity (MFI) of each sample was calculated using FlowJo software (Ashland, Oregon, USA). A representative histogram of one PAV/PAV subject is shown on the top, (B) incubated with E. coli K-12 at MOI 0.5 and exposed to 0.01% DMSO (SC) or AITC for 120 min at 37°C. Cell membrane potential depolarization was determined by staining bacteria with 1 µg/ml DiBAC4(3) for 10 min, in the dark at room temperature. Representative scattergrams of E. coli K-12 and PBMC treated with E. coli K-12 are given. An FSC/SSC plot was first made and E. coli K-12 cells gated. The population was copied to a SSC/DiBAC4(3)-scatterplot identifying the percentage of depolarized bacteria. Bars are mean value + SD, *p < 0.05, **p < 0.01. Significance of difference was calculated relative to the respective control by one-way ANOVA. […]

For another assay, the system named is IL-1β. Nature of the assay: IL-1β release of LPS stimulated PBMC (ELISA). The assay is classed as cell-based, human. Particulars: LPS activated PBMC. On the procedure:
(§1) PBMC (1x10^6/mL) cultured in RPMI 1640 medium supplemented with 10% heat-inactivated fetal calf serum, 2 mM L-glutamine, 100 U/ml penicillin/streptomycin were stimulated with 0.5 ng/ml CD3/CD28 MAbs and exposed to the test compounds. After 24 h, supernatants were collected and stored at -80°C until analysis using the human MACSplex cytokine 12-kit (Miltenyi Biotec GmbH, Bergisch Gladbach, Germany) according to manufacturer’s protocol to quantify cytokine secretion. Supernatants were also used for photometric quantification by the human TNF-alpha or IL-1β ELISA Ready-Set-Go kit from eBIoscience (Frankfurt, Germany) according to the manufacturer’s instructions.
Figure 5 In bacterial LPS stimulated PBMC, AITC triggers MAPK activation and TNF-α inhibition in dependence of the TAS2R38 genotype. PBMC were exposed to AITC or 0.01% DMSO (SC) together with 100 pg/mL LPS. (A) Representative immunoblots are given. Densitometric analysis was done to quantify the immunoblots using Quantity One software (Bio-Rad, Munich, Germany) and normalized against β-actin, which was used as loading control. (B, C) Cytokine secretion at 3 and 24 h was analyzed using ELISA kits. […] Results were calculated relative to the corresponding solvent control (SC, 0.01% DMSO). Significance of difference was determined compared to the respective SC by one-way ANOVA, *p < 0.05, **p < 0.01.

A further assay concerns p-ERK1/2, p-p38, p-Akt. Nature of the assay: Immunoblotting of MAPK and AKT phosphorylation in PBMC. The assay is classed as cell-based, human. As for the experimental part:
Proteins of interest were analyzed by immunoblotting as described before ([36]). Densitometric analysis was done to quantify the immunoblots using Quantity One software (Bio-Rad, Munich, Germany) and normalized against β-actin.
Figure 4 AITC mediates MAPK down-stream signaling in dependence of the TAS2R38 haplotype. (A, B) PBMC were treated with test compounds for the indicated time points and pellets were collected for protein expression analysis. Representative immunoblots are given. Densitometric analysis was done to quantify the immunoblots using Quantity One software (Bio-Rad, Munich, Germany) and normalized against β-actin, which was used as loading control. The graphs show phosphorylated ERK1/2, p-38 or Akt, protein levels relative to control as quantified by pixel densitometry. Bars are mean + SD; *p < 0.05, **p < 0.01 (n ≥ 2). Significance of difference was calculated relative to the corresponding solvent control determined by one-way ANOVA (SC, 0.01% DMSO).
(§2) Figure 5 In bacterial LPS stimulated PBMC, AITC triggers MAPK activation and TNF-α inhibition in dependence of the TAS2R38 genotype. PBMC were exposed to AITC or 0.01% DMSO (SC) together with 100 pg/mL LPS. (A) Representative immunoblots are given. Densitometric analysis was done to quantify the immunoblots using Quantity One software (Bio-Rad, Munich, Germany) and normalized against β-actin, which was used as loading control. (B, C) Cytokine secretion at 3 and 24 h was analyzed using ELISA kits. (D) Time kinetic of TNF-α mRNA expression. Results are means + SD and given as fold of the solvent control. Results were calculated relative to the corresponding solvent control (SC, 0.01% DMSO). Significance of difference was determined compared to the respective SC by one-way ANOVA, *p < 0.05, **p < 0.01.

Another assay relates to TNF-alpha mRNA. Nature of the assay: TNF-alpha mRNA expression in LPS stimulated PBMC (qRT-PCR). The assay is classed as cell-based, human. The settings on record: LPS stimulated PBMC from PAV/PAV subjects, transient. On the procedure:
as §2
For orientation: In qPCR the cycle at which signal appears reflects the starting amount.

The subject of a further assay is TNF-α. Kind of assay: TNF-α secretion of PBMC (ELISA), LPS stimulated or unstimulated. In kind it is cell-based, human. On the procedure:
as §1, §2
For orientation: In an ELISA, binding on a coated surface is turned into a signal by an enzyme label.

Turning to `C=CCN=C=S` [AITC, allyl isothiocyanate], the “activation of TAS2R38 taster variant among 25 TAS2Rs” value in the assay with TAS2R38-PAV receptor (HEK293T-Gα16gust44 cells transiently transfected) is reported as “selectively triggered the taster variant”. Besides, the “activation of the TAS2R38-PAV receptor” value in the assay with TAS2R38-PAV receptor was “activated”. Moreover, the threshold concentration in the assay on TAS2R38-PAV receptor (heterologous expressed TAS2R38-PAV, in vitro) is listed as 10 µM. Further, the “NO in monocyte cell population” value with NO production (AITC ≥ 10 µM, 1h, PAV/PAV (not AVI/AVI)) is on record as “insignificant increase”. Further, the “NO production in the lymphocyte population” value in the assay with NO production (PAV/PAV vs AVI/AVI, NO only detected after 5h at 100 µM AITC) is “no differential regulation”. The NO production increase was found to be 41% in the assay with NO production (AVI/AVI, 100 µM AITC) and 46% with NO production (PAV/PAV, 3 µM AITC). The “release of IL-1β” value in the assay with IL-1β is “suppressed in both AVI/AVI and PAV/PAV groups”. Besides, the “p-ERK, p-p38 and p-Akt phosphorylation” value with p-ERK1/2, p-p38, p-Akt (5 min, 100 pg/mL LPS and AITC, PAV/PAV subjects) was “upregulation”. For the same compound, the “p-ERK1/2 and p-p38 phosphorylation” value in the assay with p-ERK1/2, p-p38, p-Akt (PBMC, PAV/PAV group, in contrast to AVI/AVI) is recorded as “quick activation (5 min. AITC exposure), followed by dephosphorylation”. Besides, the p-Akt phosphorylation entry in the assay with p-ERK1/2, p-p38, p-Akt (PBMC, in dependence of the TAS2R38 genotype) was “same activation/inactivation pattern”. In the assay on TNF-alpha mRNA, the “inhibition of TNF-alpha mRNA expression” value worked out at 50%. Further, the TNF-α release entry in the assay with TNF-α (AITC exposure without inflammatory stimulus (data not shown)) is given as “no change”. Further, the inhibition (commonly the share of the control response that was lost under treatment) at 3 µM in the assay with TNF-α (Homo sapiens, 3 h LPS activated PBMC, 3 µM AITC, dependent on TAS2R38 receptor functionality, read-out: peak inhibition of TNF-α secretion) is 54%. Also, the TNF-α secretion entry in the assay on TNF-α (LPS, prolonged incubation 24 h, PAV/PAV group, all tested concentrations) is given as “abolished the effect”.
